The text below walks through data of patent US5227163A, “Lice-repellant compositions” (priority 1992, dated 1993).

For one assay, the system named is lice. In words: Standard in vitro test on filter paper (petri-dish lice repellency). The settings on record: 10 min, 20±3° C. The method, then:
Screening tests were performed on many substances of the following groups: terpenes (hydrocarbons), terpenoid alcohols, terpenoid esters, terpenoid aldehydes and ketones, essential oils which contain terpenoids and perfumes which contain terpenoids, as well as various general insect repellents, for lice-repellency. Each experiment included exposure of the lice to different concentrations of the tested substance, and measuring the dose response of those materials.
A petri-dish method was used to examine the repellency of the solutions for lice. A filter paper (Whatman No. 4, 5.5 cm in diameter) was secured in a petri-dish. A 100 μl portion of the test solution was placed on a corduroy patch (1.5 cm^2). The material was allowed to dry for 30 min. at room temperature (20±3° C.) and the patch was placed at the periphery of the petri-dish. A patch treated with a control solution (96% Ethanol) was placed on the opposite side of the dish. Twenty female lice which had been fed 24 hours previously were placed in the middle of the dish. A box was placed over the dish and it was covered with a dark cloth in order to keep the test area in the dark. The experiment was carried out at room temperature (20°±3° C.) and lasted 10 min. The number of lice on the treated and controlled patches as well as on the area between the patches was recorded in a protocol. The experiment was repeated three times for each sample.
% repellency was calculated by the following formula:
where: T=number of lice on the treated patch
C=number of lice on the untreated patch
The following terms were recorded:
RC80 =Concentration giving 80% repellency.
RC50 =Concentration giving 50% repellency.
RD80 =mg/cm^2 giving 80% repellency.
RD50 =mg/cm^2 giving 50% repellency.

The next assay concerns mosquito. The settings on record: Hwang et al. 1985; Ruledge 1988; cited from earlier work.
Assay [1] relates to human body lice. Briefly: In vivo test of lice repellency on rabbits (spray, gel, de cologne). Details: species or system Pediculus humanus humanus (on New Zealand white rabbits). The conditions noted are these: for % Repellency (Mean Values): Table 3; for Number of Lice (Out of 40) Found in the Treated Area: single experiments (a), (b), (c), listed as D.M.P. The method, then: (§1) Body lice were reared in the laboratory by feeding them every 48 hours on rabbits. Lice were placed on the shaved abdomen of a white rabbit and left until they fed to satiety. Outside the host the lice were maintained at a temperature of 30 ±1° C., and relative humidity of 70±10%.
(§2) The abdomen of a New Zealand white rabbit was shaved and 100 μl of the test substance was evenly distributed over an area 2.5×5 cm. A glass cylinder 5 cm high with an internal diameter of 3.5 cm was placed on the rabbit's abdomen so that one half of it was covering the treated area and the other half the adjacent untreated area. 40 human body lice (Pediculus humanus humanus) (20 adults and 20 nymphs) which had been fed 24 hours previously were placed in the middle of the cylinder between the treated and untreated area, and the cylinder was covered with a dark cloth in order to keep the test area in the dark. The lice remained on the body of the rabbit for 5 minutes during which time over 95% of them had started feeding. The number of lice found on the treated area was then recorded and the specimen was photographed. Room temperature during the test was 20±3° C. For comparison to the tested samples, two controls were also tested: 70% Ethanol (Frutarom, C. P.) and 33% Dimethyl Phthalate (in 70% Ethanol).
The products were topically applied as a spray, lotion or gel on human hair and skin, to repel lice. The above procedure was carried out 1, 3, 5, and 24 hours after application of a test substance. Each substance was tested three times on three different rabbits on three different occasions.
(§3) % Repellency was calculated according to equation 1.
Where: A = Total Number of lice
n = Mean number of lice found in the treated area
(§4) According to Equation 1, when lice are evenly distributed between the treated and untreated areas (n=1/2 A), % Repellency=0, and when no lice are left in the treated area (n=0), % Repellency=100.

For another assay, the system named is human lice. Briefly: In vivo lice repellency on rabbits of shampoo and conditioner. Details: species or system human lice (on rabbits). The settings on record: for % Repellency (Mean Values): Table 5; for Number of Lice (Out of 40) Found in the Treated Area: three experiments, listed as D.M.P. The method, then:
as §1
as §2, with “Ethanol). […]” for “Ethanol).”
The efficacy of a shampoo and a hair-conditioner, aimed at repellency of human lice was examined in an in vivo procedure on rabbits. Each experiment included a terpenoid containing product and four controls: 70% Ethanol, Dimethyl phthalate, placebo shampoo and placebo conditioner. All experiments were repeated three times, and the results were consistent, as shown by Table 4.
as §3, §4

Assay [2] relates to human body lice. In words: In vivo test of lice repellency on rabbits (spray, gel, de cologne). More on the design: species or system Pediculus humanus humanus (on New Zealand white rabbits). The conditions noted are these: 7 hours.

The structures appear in SMILES notation. Values joined by “and” are separate entries in the source; they are usually repeats but may differ in a detail not shown here. Equal values may be shown once.

Regarding `CC1=CCC(C(C)(C)O)CC1` (stereo not drawn) [α-TERPINEOL, α-terpineol], in the assay on lice, the “RC50 (Concentration giving 50% repellency)” value is listed as 0.040%, the “RC80 (Concentration giving 80% repellency)” value turned out to be 0.080% and the “RD80 (mg/cm^2 giving 80% repellency)” value was 0.056 mg/cm^2. In the assay with mosquito, the “mosquito repellency, in words” value is on record as “useful in mosquito repellent”.
Consider `COC(=O)c1ccccc1C(=O)OC` [Dimethyl Phthalate], for which the “% Repellency (Mean Values)” value in the assay on human body lice [1] (1 hour) is 20%; in the assay on human body lice [1] (3 hours), 10%; with human body lice [1] (5 hours) it was 20%; in the assay on human lice (1 hour), 20%; in the assay with human lice (3 hours), 10%; in the assay with human lice (5 hours), 20%. In addition, the “% Repellency (Mean Values)” value in the assay with human lice (7 hours) and in the assay with human body lice [2] (Table 3) was 26% throughout. In addition, the “Number of Lice (Out of 40) Found in the Treated Area” value is 21 and 12 and 15 with human body lice [1] (1 hour); 16 and 18 and 20 in the assay with human body lice [1] (3 hours); 16 and 14 and 18 in the assay with human body lice [1] (5 hours); 21 and 12 and 15 in the assay with human lice (1 hour); 16 and 18 and 20 in the assay with human lice (3 hours); 16 and 14 and 18 in the assay on human lice (4 hours). Further, the “Number of Lice (Out of 40) Found in the Treated Area” value was 18 and 14 and 12 in the assay on human lice (7 hours); 18 and 14 and 12 in the assay with human body lice [2] (single experiments (a), (b), (c), listed as D.M.P.). The “lice repellency in vivo, in words” value in the assay on human body lice [1] (rabbit, in vivo) is recorded as “poor results”. The “repellency against lice over the duration stated” value with human body lice [1] (range over at least 5 or 7 hours) is given as 10-25%.
